One test addresses Beta-galactosidase (Escherichia coli, UniProt Q8VNN2). As to the kind of experiment: Dose response counterscreen for EBI2 assay utilizing the enzyme, b-galactosidase. In kind it is functional. (A counterscreen serves to expose hits that act by an unwanted route or on another target.)
Another test deals with Galanin receptor type 3 (Homo sapiens, UniProt O60755). Description: Fluorescence-based cell-based primary high throughput dose response assay to identify antagonists of the Galanin Receptor 3 (GalR3). In kind it is functional.
The nature of the next test: cells. The class given is functional, cell-based. As to conditions: HEK-CNG.
The target of test [1] is ADP-ribosylation factor GTPase-activating protein 1 (Rattus norvegicus, UniProt Q62848). Description: Fluorescence polarization-based biochemical high throughput dose response screening assay to identify inhibitors of ADP-ribosylation factor GTPase activating protein 1 (ARFGAP1). In kind it is functional.
The nature of test [2]: HGIII-sPLA2 enzyme inhibition potency – biochemical, QFRET, IC50, dose response (AID 743457).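 Also: green fluorescence rise as the enzyme cleaves BODIPY PC-A2 in liposomes.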
In test [3] the target is Induced myeloid leukemia cell differentiation protein Mcl-1 (Homo sapiens, UniProt Q07820). In kind it is functional.
Test [4] addresses T1, Small ubiquitin-related modifier 1 (Homo sapiens, UniProt P63165). Description: SUMO1 protein-protein binding blockers, potency – biochemical, FRET, dose response (AID 624383). As to conditions: read-out: IC50_Mean. In kind it is functional.
Test [5] concerns the target T1, Small ubiquitin-related modifier 1. As to the kind of experiment: SUMO1 protein interaction blockers, potency – biochemical, fluorescence polarization, uHTS hits, dose response (AID 624382). The class given is functional. As to conditions: read-out: IC50_Mean. (In fluorescence polarisation assays a small probe gives low polarisation when free and higher when bound to something large.)

A short description of test [6]: toxicity toward HepG2 liver cells – cell-based, plate reader, cherry-pick, antagonist series, cytotoxicity control, dose response (AID 743416). In kind it is functional.
The nature of test [7]: blockers of bursicon-stimulated LGR2 cAMP reporter – cell-based, HEK293, CRE-luciferase reporter, cherry pick, set 2, dose response (AID 743343).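 Also: transfected cells were stimulated with diluted bursicon conditioned medium after compound addition.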 In kind it is functional. Background: Reporter assays use an easily measured gene product as a stand-in for the process of interest.
A short description of test [8]: blockade of melanocortin 4 receptor signaling – cell-based, plate reader, cherry pick, counter-screen for LGR2 antagonist project, dose response (AID 743444).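 Also: transfected HEK 293 cells stimulated with alpha-MSH peptide; potency of inhibitors of the alpha-MSH evoked signal.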 The class given is functional.
The nature of test [9]: viability loss in HEK293 cells – cell-based, plate reader, cherry-picked samples, cytotoxicity control, dose response (AID 743446). The class given is functional.
A short description of test [10]: A549 cell cytotoxicity, dose response, cytotoxicity control, plate reader, cherry-pick, antagonist series (AID 743412). The class given is functional, cell-based.

Each structure is given as a SMILES string. The source made the active and inactive calls. Bounds are passed on as bounds.
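For EC50 in this document: target is galanin receptor GalR3 read with a cAMP biosensor in HEK293 cells.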

T1 sequence (P63165 whole entry): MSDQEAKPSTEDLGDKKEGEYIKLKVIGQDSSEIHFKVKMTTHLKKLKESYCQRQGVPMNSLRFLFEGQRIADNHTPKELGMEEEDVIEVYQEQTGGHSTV
ADP-ribosylation factor GTPase-activating protein 1, sequence (Q62848 whole entry): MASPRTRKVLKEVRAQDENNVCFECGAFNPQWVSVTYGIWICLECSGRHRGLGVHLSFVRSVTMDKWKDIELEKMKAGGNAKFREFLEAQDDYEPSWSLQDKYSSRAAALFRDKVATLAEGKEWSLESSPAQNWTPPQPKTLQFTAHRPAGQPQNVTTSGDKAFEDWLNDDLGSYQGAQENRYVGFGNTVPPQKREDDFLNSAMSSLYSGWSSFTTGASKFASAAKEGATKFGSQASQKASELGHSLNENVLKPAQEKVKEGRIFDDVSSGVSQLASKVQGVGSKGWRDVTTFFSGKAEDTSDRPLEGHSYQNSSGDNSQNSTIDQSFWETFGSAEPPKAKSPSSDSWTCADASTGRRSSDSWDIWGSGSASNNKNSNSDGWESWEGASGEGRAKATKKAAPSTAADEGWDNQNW
Beta-galactosidase, sequence (Q8VNN2 whole entry): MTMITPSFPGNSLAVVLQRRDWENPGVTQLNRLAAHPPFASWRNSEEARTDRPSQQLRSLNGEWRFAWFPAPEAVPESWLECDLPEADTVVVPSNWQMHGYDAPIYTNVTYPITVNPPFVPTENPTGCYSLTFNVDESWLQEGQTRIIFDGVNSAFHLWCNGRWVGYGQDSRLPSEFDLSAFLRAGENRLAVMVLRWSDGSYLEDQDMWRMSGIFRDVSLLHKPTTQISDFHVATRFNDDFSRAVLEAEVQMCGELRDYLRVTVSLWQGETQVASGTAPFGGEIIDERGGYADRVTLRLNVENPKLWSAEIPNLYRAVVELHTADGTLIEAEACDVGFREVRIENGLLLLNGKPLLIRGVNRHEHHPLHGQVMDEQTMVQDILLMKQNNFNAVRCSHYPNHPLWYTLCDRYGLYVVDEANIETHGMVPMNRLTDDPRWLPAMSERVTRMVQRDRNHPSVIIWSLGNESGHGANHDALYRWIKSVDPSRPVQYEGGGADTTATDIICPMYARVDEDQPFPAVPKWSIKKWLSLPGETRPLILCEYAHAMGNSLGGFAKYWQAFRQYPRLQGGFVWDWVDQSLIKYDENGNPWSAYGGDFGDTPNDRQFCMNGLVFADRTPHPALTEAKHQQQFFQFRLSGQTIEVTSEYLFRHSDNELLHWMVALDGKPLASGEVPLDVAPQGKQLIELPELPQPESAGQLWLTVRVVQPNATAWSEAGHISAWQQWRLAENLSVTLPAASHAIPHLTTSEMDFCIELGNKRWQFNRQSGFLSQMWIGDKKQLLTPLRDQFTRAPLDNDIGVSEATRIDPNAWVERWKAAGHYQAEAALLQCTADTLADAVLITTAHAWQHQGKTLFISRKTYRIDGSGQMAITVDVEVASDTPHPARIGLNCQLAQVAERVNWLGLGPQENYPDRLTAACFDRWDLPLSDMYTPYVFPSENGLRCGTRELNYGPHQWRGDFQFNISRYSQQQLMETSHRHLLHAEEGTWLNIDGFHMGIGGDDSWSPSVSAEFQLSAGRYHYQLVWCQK
Galanin receptor type 3, sequence (O60755 whole entry): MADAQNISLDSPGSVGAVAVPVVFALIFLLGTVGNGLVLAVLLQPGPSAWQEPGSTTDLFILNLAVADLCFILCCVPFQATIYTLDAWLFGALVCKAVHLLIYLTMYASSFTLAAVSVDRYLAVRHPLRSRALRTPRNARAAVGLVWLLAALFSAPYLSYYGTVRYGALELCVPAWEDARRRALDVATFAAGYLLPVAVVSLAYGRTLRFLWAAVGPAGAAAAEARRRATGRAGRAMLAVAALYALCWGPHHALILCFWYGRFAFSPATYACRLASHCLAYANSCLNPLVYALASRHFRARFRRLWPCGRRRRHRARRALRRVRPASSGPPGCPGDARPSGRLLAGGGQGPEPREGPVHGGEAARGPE
Induced myeloid leukemia cell differentiation protein Mcl-1, sequence (Q07820 whole entry): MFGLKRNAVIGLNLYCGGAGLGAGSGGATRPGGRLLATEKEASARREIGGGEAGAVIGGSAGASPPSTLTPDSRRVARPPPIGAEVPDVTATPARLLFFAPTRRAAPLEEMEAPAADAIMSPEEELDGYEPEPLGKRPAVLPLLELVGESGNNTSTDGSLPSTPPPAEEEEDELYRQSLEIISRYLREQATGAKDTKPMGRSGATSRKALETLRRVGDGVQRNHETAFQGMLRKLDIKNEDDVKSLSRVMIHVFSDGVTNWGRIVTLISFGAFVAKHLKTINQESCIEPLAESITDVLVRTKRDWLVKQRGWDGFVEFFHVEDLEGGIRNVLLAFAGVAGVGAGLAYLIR

On to `Cc1cc(C)c(S(=O)(=O)N2CCN(C(=O)C3COc4ccccc4O3)CC2)c(C)c1` (stereo not given), for which the IC50 on Beta-galactosidase was > 80 µM (inactive).
For `Cc1ccc(-c2sc(C(=O)NN)c(C)c2C#N)cc1`, the IC50 on Galanin receptor type 3 is > 29.9 µM (inactive). In “cells”, the EC50 (usually the concentration giving half of the maximal effect) was > 29.9 µM (inactive).
Consider `COc1cc(/C=C2\SC(N)=NC2=O)ccc1OCC(=O)Nc1ccc(C)cc1`, for which the IC50 in [1] is 28.3 µM (inactive).
With `Cc1ccccc1OCCCN1C(=O)C(=O)c2cccc(C)c21`, the IC50 in test [2] was > 122 µM (inactive).
With `O=C(NC1CC1)c1cc(-c2ccco2)nc2ccccc12`, the IC50 in test [3] is 1.71 µM (active); in test [4], 8.06 µM (active); in test [5], > 66.6 µM (inactive).
As for `Cc1c(Cl)c(C(=O)NN=C(S)NCc2ccco2)nn1C`, in test [2], the IC50 was > 122 µM (inactive).
For `Cc1ccc(-c2cnc3c(Cl)c(C)nn3c2)cc1`, the AC50 (as a rule, the concentration at which the activity in the assay is half-maximal) in test [6] was 40.8 µM (active); in test [7], 7.53 µM (active); in test [8], 8.19 µM (active); in test [9], 31.5 µM (active); in test [10], 5.87 µM (active).
Regarding `O=C(Cn1c2ccc(F)cc2c2nc3n(c(=O)c21)CCS3)Nc1ccccc1C(F)(F)F`, the IC50 in [1] is 50.1 µM (inactive).
